Assay results taken from patent US12065443B2, “Compounds and pharmaceutical compositions thereof for the treatment of diseases” (priority 2017, dated 2024).
Read-outs that look alike come from different tables or passages of the source.

Assays:
[1] = test system: LPS-induced TNFα secretion in monocyte-derived macrophages (MdM); test: MdM assay: LPS-triggered TNFα (ELISA); format: cell-based, human; conditions: Homo sapiens, Macrophage, LPS-triggered TNFα inhibition
Summary of the method: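 Human CD14+ monocytes isolated from buffy-coat PBMCs by magnetic beads, differentiated to macrophages; on day 10 compound preincubated 1 h at 37 °C, then LPS 200 ng/mL added (0.2% DMSO). Supernatant taken after 20 h; TNFα quantified by sandwich ELISA against standard curve.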

SIK2 [2] = target: T1, SIK2 (Homo sapiens, UniProt Q9H0K1); test: biochemical; conditions: ADP-Glo SIK kinase assay
T1 construct: purchased ThermoFisher Scientific PV4792
T1 sequence (Q9H0K1 whole entry): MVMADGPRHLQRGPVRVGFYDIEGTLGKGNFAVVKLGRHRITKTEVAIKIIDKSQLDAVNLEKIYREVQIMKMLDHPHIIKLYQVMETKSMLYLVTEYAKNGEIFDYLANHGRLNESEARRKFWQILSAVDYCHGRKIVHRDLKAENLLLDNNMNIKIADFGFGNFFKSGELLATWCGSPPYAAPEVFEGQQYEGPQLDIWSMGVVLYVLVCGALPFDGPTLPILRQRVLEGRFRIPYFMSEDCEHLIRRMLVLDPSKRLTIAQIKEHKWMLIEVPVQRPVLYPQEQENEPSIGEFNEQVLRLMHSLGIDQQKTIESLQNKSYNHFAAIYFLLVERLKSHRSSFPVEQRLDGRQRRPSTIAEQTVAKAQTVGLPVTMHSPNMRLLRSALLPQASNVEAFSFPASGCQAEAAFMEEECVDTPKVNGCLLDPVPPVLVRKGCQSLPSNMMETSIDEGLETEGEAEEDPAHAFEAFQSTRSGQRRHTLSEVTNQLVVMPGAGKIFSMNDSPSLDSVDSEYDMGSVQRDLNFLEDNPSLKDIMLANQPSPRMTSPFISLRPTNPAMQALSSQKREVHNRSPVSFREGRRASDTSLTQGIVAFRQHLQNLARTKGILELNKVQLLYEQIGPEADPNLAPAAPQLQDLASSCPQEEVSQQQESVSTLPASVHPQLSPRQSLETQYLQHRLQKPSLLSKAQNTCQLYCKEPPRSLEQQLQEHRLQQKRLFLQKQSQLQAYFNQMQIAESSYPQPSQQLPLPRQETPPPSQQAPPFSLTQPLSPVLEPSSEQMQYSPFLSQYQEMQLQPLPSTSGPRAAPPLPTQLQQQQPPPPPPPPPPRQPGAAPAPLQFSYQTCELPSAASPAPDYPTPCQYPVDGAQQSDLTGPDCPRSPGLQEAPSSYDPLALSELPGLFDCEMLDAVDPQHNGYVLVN
Description: (§1) The ADP-Glo™ kinase assay is a luminescent technology assay which measures the ADP formed from a kinase reaction. […] In a second step the kinase reactions are terminated and all the remaining ATP is depleted. In a final step the ADP is converted into ATP and this newly synthesized ATP is measured by using a luciferase/luciferin reaction. The generated light is measured using an Envision plate reader, wherein the luminescent signal obtained positively correlates with the kinase activity.
(§2) 1% DMSO and 10 μM staurosporine final concentrations are used as negative and positive controls.
(§3) 2 μL enzyme-substrate mixture is added to the assay plates.
(§4) The reaction is started by adding 2 μL diluted ATP on the assay plates. Plates are centrifuged for a few seconds at 1000 rpm and gently shaken for 2 min followed by an incubation at RT for 120 min.
(§5) The reactions are stopped and the unconsumed ATP is depleted by adding 5 μL ADP-Glo Reagent (Promega, Cat #V912B) to the reaction. The plates are centrifuged for a few seconds at 1000 rpm and incubated at RT for 40 min (ATP depletion).
(§6) The ADP is converted to ATP and luciferase and luciferin is introduced to detect ATP by adding 10 μL Kinase Detection Reagent (Promega, Cat #V913B+V914B) to the reaction. The plates are centrifuged for a few seconds at 1000 rpm and incubated at RT for 30 min (ADP detection).
(§7) Luminescence is measured on an Envision plate reader (PerkinElmer Inc.).

SIK1 [3] = target: T2, SIK1 (Homo sapiens, UniProt P57059); test: biochemical; conditions: ADP-Glo SIK kinase assay
T2 construct: purchased Carna Biosciences 02-131
T2 sequence (P57059 whole entry): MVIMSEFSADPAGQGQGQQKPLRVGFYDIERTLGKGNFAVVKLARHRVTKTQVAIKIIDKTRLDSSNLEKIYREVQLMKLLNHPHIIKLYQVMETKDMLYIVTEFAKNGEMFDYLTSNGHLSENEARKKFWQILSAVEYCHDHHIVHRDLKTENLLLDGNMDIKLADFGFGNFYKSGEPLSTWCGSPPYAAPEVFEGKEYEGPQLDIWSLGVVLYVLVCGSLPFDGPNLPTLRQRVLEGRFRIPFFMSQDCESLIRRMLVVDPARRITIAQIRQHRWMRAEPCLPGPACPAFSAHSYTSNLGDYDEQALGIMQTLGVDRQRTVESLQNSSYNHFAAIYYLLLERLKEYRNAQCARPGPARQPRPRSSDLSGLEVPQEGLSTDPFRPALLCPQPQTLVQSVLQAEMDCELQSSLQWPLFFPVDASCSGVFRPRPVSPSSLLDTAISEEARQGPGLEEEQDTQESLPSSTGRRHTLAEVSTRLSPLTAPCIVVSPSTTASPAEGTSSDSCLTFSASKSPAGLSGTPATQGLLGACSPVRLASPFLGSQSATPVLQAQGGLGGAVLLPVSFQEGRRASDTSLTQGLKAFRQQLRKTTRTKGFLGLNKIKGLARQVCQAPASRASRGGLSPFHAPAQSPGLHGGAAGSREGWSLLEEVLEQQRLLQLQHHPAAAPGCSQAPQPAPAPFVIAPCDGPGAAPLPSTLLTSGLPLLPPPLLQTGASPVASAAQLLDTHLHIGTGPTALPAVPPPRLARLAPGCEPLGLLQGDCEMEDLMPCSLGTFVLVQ
Description: as §1, §2, §3, §4, §5, §6, §7

SIK3 [4] = target: T3, SIK3 (Homo sapiens, UniProt Q9Y2K2); test: biochemical; conditions: ADP-Glo SIK kinase assay
T3 construct: purchased SignalChem S12-11G-100
T3 sequence (Q9Y2K2 whole entry): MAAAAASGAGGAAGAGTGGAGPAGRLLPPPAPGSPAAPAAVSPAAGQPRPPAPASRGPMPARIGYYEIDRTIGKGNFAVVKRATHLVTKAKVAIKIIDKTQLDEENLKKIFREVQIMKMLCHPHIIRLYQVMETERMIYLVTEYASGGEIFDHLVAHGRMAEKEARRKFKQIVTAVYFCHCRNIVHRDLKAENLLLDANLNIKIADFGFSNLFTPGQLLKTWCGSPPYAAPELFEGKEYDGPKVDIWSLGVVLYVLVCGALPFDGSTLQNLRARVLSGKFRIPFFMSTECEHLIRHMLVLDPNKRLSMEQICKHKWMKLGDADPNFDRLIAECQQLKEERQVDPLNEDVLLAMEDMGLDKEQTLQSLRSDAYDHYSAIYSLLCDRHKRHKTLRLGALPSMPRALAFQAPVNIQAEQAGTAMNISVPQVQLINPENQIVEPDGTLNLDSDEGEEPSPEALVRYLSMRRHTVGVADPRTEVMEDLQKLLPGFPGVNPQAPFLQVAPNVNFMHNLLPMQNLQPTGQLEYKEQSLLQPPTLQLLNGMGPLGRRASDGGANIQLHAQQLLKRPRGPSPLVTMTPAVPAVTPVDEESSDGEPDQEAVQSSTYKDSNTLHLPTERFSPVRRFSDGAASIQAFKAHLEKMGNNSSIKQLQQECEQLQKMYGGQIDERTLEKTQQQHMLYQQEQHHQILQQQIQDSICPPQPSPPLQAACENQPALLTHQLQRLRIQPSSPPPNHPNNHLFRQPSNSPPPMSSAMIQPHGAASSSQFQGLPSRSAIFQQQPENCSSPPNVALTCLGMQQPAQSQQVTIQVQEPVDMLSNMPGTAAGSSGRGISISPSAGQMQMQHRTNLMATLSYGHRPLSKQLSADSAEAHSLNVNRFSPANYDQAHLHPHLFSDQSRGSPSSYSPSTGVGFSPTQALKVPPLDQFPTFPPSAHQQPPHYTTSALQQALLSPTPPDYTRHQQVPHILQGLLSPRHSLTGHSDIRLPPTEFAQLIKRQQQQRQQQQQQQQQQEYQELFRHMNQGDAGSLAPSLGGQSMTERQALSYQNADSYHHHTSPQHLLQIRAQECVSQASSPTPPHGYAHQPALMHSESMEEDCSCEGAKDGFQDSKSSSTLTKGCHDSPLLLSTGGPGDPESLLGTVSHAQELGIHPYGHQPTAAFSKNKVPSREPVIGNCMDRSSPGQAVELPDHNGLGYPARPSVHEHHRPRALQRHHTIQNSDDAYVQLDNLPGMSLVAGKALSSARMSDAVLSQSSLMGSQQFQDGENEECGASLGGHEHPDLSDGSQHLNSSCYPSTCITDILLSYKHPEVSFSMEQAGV
Description: as §1, §2, §3, §4, §5, §6, §7

SIK2 [5] = target: T1, SIK2; test: biochemical; conditions: 33P radioactive SIK kinase assay, AMARA peptide, 10 μM ATP
Summary of the method: (§8)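 AMARA peptide phosphorylation by SIK1–3 is quantified through ^33P uptake from a labeled/unlabeled ATP blend. Staurosporine at 10 μM final defines full inhibition, 1% DMSO the uninhibited signal. Quench uses phosphoric acid; counting follows filter capture.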

SIK1 [6] = target: T2, SIK1; test: biochemical; conditions: 33P radioactive SIK kinase assay, AMARA peptide, 10 μM ATP; read-out: SIK1 IC50
Summary of the method: as §8

SIK3 [7] = target: T3, SIK3; test: biochemical
Summary of the method: as §8

SMILES	EC50 [1] [nM]	IC50 (SIK2 [2]) [nM]	IC50 (SIK1 [3]) [nM]	IC50 (SIK3 [4]) [nM]	IC50 (SIK2 [5]) [nM]	IC50 (SIK1 [6]) [nM]	IC50 (SIK3 [7]) [nM]
COc1cc(-c2cnc3cc(-c4cnn(C)c4)c(OCC(=O)O)cn23)cc(OC(F)F)c1C(=O)NC1CC1 [Cpd 299, 2-[3-[4-(cyclopropyl-carbamoyl)-3-(difluoromethoxy)-5-methoxy-phenyl]-7-(1-melhylpyrazol-4-yl)imidazo[1,2-a]pyridin-6-yl]oxyacetic acid]	> 5000	0.01 to 10	10 to 100	10 to 100			
CCN(CC)CCOC(=O)C(C)(C)n1cc(-c2ccn3c(-c4cc(OC)c(C(=O)NCC(F)(F)F)c(OC)c4)cnc3c2)cn1 [Cpd 305, 2-(diethylamino)ethyl 2-[4-[3-[3,5-dimethoxy-4-(2,2,2-trifluoroethyl-carbamoyl)phenyl]imidazo[1,2-a]pyridin-7-yl]pyrazol-1-yl]-2-methyl-propanoate]	100 to 1000	0.01 to 10	0.01 to 10	0.01 to 10			
COc1cc(-n2cnc3cc(-c4cnn(C)c4)ccc32)cc(OC)c1C(=O)NC(C)(C)C [compound 76, N-tert-butyl-2,6-dimethoxy-4-[5-(1-methylpyrazol-4-yl)benzimidazol-1-yl]benzamide]	> 5000	> 500	> 500	> 500	> 500	> 500	> 500
COc1cc(-c2cnc3cc(-c4cnn(C)c4)ccn23)cc(OC)c1C(=O)N1CC(C(F)(F)F)C1 [compound 213, [2,6-dimethoxy-4-[7-(1-methylpvrazol-4-yl)imidazo[1,2-a]pyridin-3-yl]phenyl]-[3-(trifluoromethyl)azetidin-1-yl]methanone]	0.1 to 100	0.01 to 10	0.01 to 10	0.01 to 10	0.01 to 10	0.01 to 10	0.01 to 10
COc1cc(-c2cnc3cc(-c4cn(C)cn4)ccn23)cc(OC)c1C(=O)N[C@@H](C)C(F)(F)F [compound 216, 2,6-dimethoxy-4-[7-(1-methylimidazol-4-yl)imidazo[1,2-a]pyridin-3-yl]-N-[(1S)-2,2,2-trifluoro-1-methyl-ethyl]benzamide]	1000 to 5000	10 to 100	100 to 500	10 to 100	10 to 100	100 to 500	100 to 500
COc1cc(-c2cnc3cc(-c4cnn(C5CN(C(=O)OC(C)(C)C)C5)c4)ccn23)cc(OC)c1C(=O)NCC(F)(F)F [compound 260, tert-butyl 3-[4-[3-[3,5-dimethoxy-4-(2,2,2-trifluoroethyl-carbamoyl)phenyl]imidazo[1,2-a]pyridin-7-yl]pyrazol-1-yl]azetidine-1-carboxylate]		0.01 to 10	0.01 to 10	0.01 to 10	0.01 to 10	0.01 to 10	0.01 to 10
COc1ccc(-c2ccn3c(-c4cc(OC)c(C(=O)NC5CC5)c(OC(F)F)c4)cnc3c2)cn1 [compound 267, N-cyclopropyl-2-(difluoromethoxy)-6-methoxy-4-[7-(6-methoxy-3-pyridyl)imidazo[1,2-a]pyridin-3-yl]benzamide]	0.1 to 100	0.01 to 10	0.01 to 10	0.01 to 10			
COc1cc(-c2cnc3cc(-c4cc(C)no4)ccn23)cc(OC(F)F)c1C(=O)NC1CC1 [compound 270, N-cyclopropyl-2-(difluoromethoxy)-6-methoxy-4-[7-(3-methylisoxazol-5-yl)imidazo[1,2-a]pyridin-3-yl]benzamide]	0.1 to 100	0.01 to 10	0.01 to 10	0.01 to 10			
COc1cc(-c2cnc3cc(-c4cncn4C)ccn23)cc(OC(F)F)c1C(=O)NC1CC1 [compound 274, N-cyclopropyl-2-(difluoromethoxy)-6-methoxy-4-[7-(3-methylimidazol-4-yl)imidazo[1,2-a]pyridin-3-yl]benzamide]	100 to 1000	0.01 to 10	10 to 100	0.01 to 10			
COc1cc(-c2cnc3cc(-c4ccc(C5CC5)nn4)ccn23)cc(OC(F)F)c1C(=O)NC1CC1 [compound 285, N-cyclopropyl-4-[7-(6-cyclopropyl-pyridazin-3-yl)imidazo[1,2-a]pyridin-3-yl]-2-(difluoromethoxy)-6-methoxy-benzamide]	0.1 to 100	0.01 to 10	0.01 to 10	0.01 to 10			
COc1cc(-n2cnc3cc(-c4cn[nH]c4)ccc32)cc(OC(F)F)c1C(=O)NC1CC1 [compound 306, N-cyclopropyl-2-(difluoromethoxy)-6-methoxy-4-[5-(1H-pyrazol-4-yl)benzimidazol-1-yl]benzamide]	0.1 to 100	0.01 to 10	0.01 to 10	0.01 to 10			
COc1cc(-c2cnc3cc(-c4cn[nH]c4)ccn23)cc(OC(F)F)c1C(=O)NC1CC1 [compound 307, N-cyclopropyl-2-(difluoromethoxy)-6-methoxy-4-[7-(1H-pyrazol-4-yl)imidazo[1,2-a]pyridin-3-yl]benzamide]	0.1 to 100	0.01 to 10	0.01 to 10	0.01 to 10			

The next lines start with the values.

EC50 [1] [nM]	IC50 (SIK2 [2]) [nM]	IC50 (SIK1 [3]) [nM]	IC50 (SIK3 [4]) [nM]	IC50 (SIK2 [5]) [nM]	IC50 (SIK1 [6]) [nM]	IC50 (SIK3 [7]) [nM]	SMILES
0.1 to 100	0.01 to 10	10 to 100	0.01 to 10				COc1cc(-c2cnc3cc(-c4ccc(C)nn4)ccn23)cc(OC(F)F)c1C(=O)NC1CC1 [Cpd 273, N-cyclopropyl-2-(difluoromethoxy)-6-methoxy-4-[7-(6-methylpyridazin-3-yl)imidazo[1,2-a]pyridin-3-yl]benzamide]
0.1 to 100	0.01 to 10	10 to 100	0.01 to 10				COc1cc(-c2cnc3cc(-c4cnn(C)c4)ccn23)cc(F)c1C(=O)NC1CC1 [Cpd 276, N-cyclopropyl-2-fluoro-6-methoxy-4-[7-(1-methylpyrazol-4-yl)imidazo[1,2-a]pyridin-3-yl]benzamide]
100 to 1000	0.01 to 10	10 to 100	0.01 to 10				COCCOc1cc(-c2cnc3cc(-c4cnn(C)c4)ccn23)cc(OC)c1C(=O)NC1CC1 [Cpd 278, N-cyclopropyl-2-methoxy-6-(2-methoxyethoxy)-4-[7-(1-methylpyrazol-4-yl)imidazo[1,2-a]pyridin-3-yl]benzamide]
0.1 to 100	0.01 to 10	0.01 to 10	0.01 to 10				CCOC(=O)C(Cn1cc(-c2ccn3c(-c4cc(OC)c(C(=O)NCC(F)(F)F)c(OC)c4)cnc3c2)cn1)C(C)C (stereo not shown) [Cpd 294]
0.1 to 100	0.01 to 10	0.01 to 10	0.01 to 10				CCOC(=O)C(C)(C)n1cc(-c2ccn3c(-c4cc(OC)c(C(=O)NCC(F)(F)F)c(OC)c4)cnc3c2)cn1 [Cpd 295, ethyl 2-[4-[3-[3,5-dimethoxy-4-(2,2,2-trifluoroethyl-carbamoyl)phenyl]imidazo[1,2-a]pyridin-7-yl]pyrazol-1-yl]-2-methyl-propanoate]
0.1 to 100	0.01 to 10	0.01 to 10	0.01 to 10				CCOC(=O)C(C(C)C)n1cc(-c2ccn3c(-c4cc(OC)c(C(=O)NCC(F)(F)F)c(OC)c4)cnc3c2)cn1 (stereo not shown) [Cpd 296, ethyl 2-[4-(3-[3,5-dimethoxy-4-(2,2,2-trifluoro-ethylcarbamoyl)phenyl]imidazo[1,2-a]pyridin-7-yl]pyrazol-1-yl]-3-methyl-butanoate]
100 to 1000	0.01 to 10	0.01 to 10	0.01 to 10				COc1cc(-c2cnc3cc(-c4cnn(CC(=O)OCC5CCCO5)c4)ccn23)cc(OC)c1C(=O)NCC(F)(F)F (stereo not shown) [Cpd 297, tetrahydrofuran-2-ylmethyl 2-[4-[3-[3,5-dimethoxy-4-(2,2,2-trifluoro-ethylcarbamoyl)phenyl]imidazo[1,2-a]pyridin-7-yl]pyrazol-1-yl]acetate]
1000 to 5000	0.01 to 10	0.01 to 10	0.01 to 10				CCOC(=O)COc1cn2c(-c3cc(OC)c(C(=O)NC4CC4)c(OC(F)F)c3)cnc2cc1-c1cnn(C)c1 [Cpd 298, ethyl 2-[3-[4-(cyclopropyl-carbamoyl)-3-(difluoromethoxy)-5-methoxy-phenyl]-7-(1-methylpvrazol-4-yl)imidazo[1,2-a]pyridin-6-yl]oxyacetate]
